Assay results from US8940909B2, “Indicator platform” (Biosynth AG, priority 2009, dated 2015).

Tests used:
Type in all cases: cell-based
Citrobacter freundii 181 = assay: IO staining of colonies of beta-D-galactosidase positive/negative bacteria (Table IVb); conditions: Citrobacter freundii strain 181, b-gal +; 24 h on Nutrient Agar, 150 mg/l indicator, 100 mg/l IPTG; on C: Color of colonies: key: −: absent; +/−: weak; +: strong; ++: very strong; on G: Growth of colonies: key: −: absent; +/−: weak; +: strong; ++: very strong
[1] = tested on: Escherichia coli (O157:H7) 60; assay: as above; conditions: Escherichia coli (O157:H7) strain 60, b-gal +; 24 h on Nutrient Agar, 150 mg/l indicator, 100 mg/l IPTG
[2] = tested on: Listeria monocytogenes (4b) 290; assay: as above; conditions: Listeria monocytogenes (4b) strain 290, b-gal −; 24 h on Nutrient Agar, 150 mg/l indicator, 100 mg/l IPTG; on C: Color of colonies: key: −: absent; +/−: weak; +: strong; ++: very strong; on F: Fluorescence of colonies: key: −: absent; +/−: weak; +: strong; ++: very strong
Salmonella illa 73 = assay: as above; conditions: Salmonella illa strain 73, b-gal +; 24 h on Nutrient Agar, 150 mg/l indicator, 100 mg/l IPTG; further: key: −: absent; +/−: weak; +: strong; ++: very strong
[3] = tested on: Streptococcus agalactiae 195; assay: as above; conditions: Streptococcus agalactiae strain 195, b-gal −; 24 h on Nutrient Agar, 150 mg/l indicator, 100 mg/l IPTG; on C: Color of colonies: key: −: absent; +/−: weak; +: strong; ++: very strong; on F: Fluorescence of colonies: key: −: absent; +/−: weak; +: strong; ++: very strong
Staphylococcus aureus 2 = assay: as above; conditions: Staphylococcus aureus strain 2, b-gal −, 24 h on Nutrient Agar, 150 mg/l indicator, 100 mg/l IPTG; for C: Color of colonies: footnote 2: S. aureus natural color; on F: Fluorescence of colonies: key: −: absent; +/−: weak; +: strong; ++: very strong
[4] = tested on: Staphylococcus saprophyticus 273; assay: as above; conditions: Staphylococcus saprophyticus strain 273, b-gal +; 24 h on Nutrient Agar, 150 mg/l indicator, 100 mg/l IPTG; on G: Growth of colonies: key: −: absent; +/−: weak; +: strong; ++: very strong
[5] = tested on: Staphylococcus intermedius 31; assay: as above; conditions: Staphylococcus intermedius strain 31, b-gal +; 24 h on Nutrient Agar, 150 mg/l indicator, 100 mg/l IPTG
Serratia marcescens 40 = assay: as above; conditions: Serratia marcescens strain 40, b-gal +; 24 h on Nutrient Agar, 150 mg/l indicator, 100 mg/l IPTG; on G: Growth of colonies: key: −: absent; +/−: weak; +: strong; ++: very strong
[6] = tested on: Klebsiella pneumoniae 164; assay: as above; conditions: Klebsiella pneumoniae strain 164, b-gal +; 24 h on Nutrient Agar, 150 mg/l indicator, 100 mg/l IPTG; on C: Color of colonies: key: −: absent; +/−: weak; +: strong; ++: very strong; on G: Growth of colonies: key: −: absent; +/−: weak; +: strong; ++: very strong
[7] = tested on: Salmonella enteritidis 43; assay: as above; conditions: Salmonella enteritidis strain 43, b-gal −; 24 h on Nutrient Agar, 150 mg/l indicator, 100 mg/l IPTG; further: key: −: absent; +/−: weak; +: strong; ++: very strong
[8] = tested on: Yersinia enterocolitica 175; assay: as above; conditions: Yersinia enterocolitica strain 175, b-gal +/−; 24 h on Nutrient Agar, 150 mg/l indicator, 100 mg/l IPTG; on G: Growth of colonies: key: −: absent; +/−: weak; +: strong; ++: very strong
Shigella sonnei 133 = assay: as above; conditions: Shigella sonnei strain 133, b-gal +/−; 24 h on Nutrient Agar, 150 mg/l indicator, 100 mg/l IPTG; on C: Color of colonies: key: −: absent; +/−: weak; +: strong; ++: very strong; on G: Growth of colonies: key: −: absent; +/−: weak; +: strong; ++: very strong
Aeromonas hydrophila 292 = assay: as above; conditions: Aeromonas hydrophila strain 292, b-gal +; 24 h on Nutrient Agar, 150 mg/l indicator, 100 mg/l IPTG; on G: Growth of colonies: key: −: absent; +/−: weak; +: strong; ++: very strong
[9] = tested on: Shigella dysenteriae Serovar 1 131; assay: as above; conditions: Shigella dysenteriae Serovar 1 strain 131, b-gal +/−; 24 h on Nutrient Agar, 150 mg/l indicator, 100 mg/l IPTG
[10] = tested on: Pseudomonas aeruginosa 168; assay: as above; conditions: Pseudomonas aeruginosa strain 168, b-gal −, 24 h on Nutrient Agar, 150 mg/l indicator, 100 mg/l IPTG; for F: Fluorescence of colonies: footnote 1: blue autofluorescence; on C: Color of colonies: key: −: absent; +/−: weak; +: strong; ++: very strong; on G: Growth of colonies: key: −: absent; +/−: weak; +: strong; ++: very strong
Bacillus subtilis 65 = assay: as above; conditions: Bacillus subtilis strain 65, b-gal −; 24 h on Nutrient Agar, 150 mg/l indicator, 100 mg/l IPTG; on C: Color of colonies: key: −: absent; +/−: weak; +: strong; ++: very strong; on F: Fluorescence of colonies: key: −: absent; +/−: weak; +: strong; ++: very strong
Salmonella bongori 81 = assay: as above; conditions: Salmonella bongori strain 81, b-gal +; 24 h on Nutrient Agar, 150 mg/l indicator, 100 mg/l IPTG; on C: Color of colonies: key: −: absent; +/−: weak/variable; +: strong; on G: Growth of colonies: key: −: absent; +/−: weak; +: strong; ++: very strong
Enterobacter cloacae 245 = assay: as above; conditions: Enterobacter cloacae strain 245, b-gal +; 24 h on Nutrient Agar, 150 mg/l indicator, 100 mg/l IPTG; on C: Color of colonies: key: −: absent; +/−: weak; +: strong; ++: very strong; on G: Growth of colonies: key: −: absent; +/−: weak; +: strong; ++: very strong
Escherichia coli 61 = assay: as above; conditions: Escherichia coli strain 61, b-gal +; 24 h on Nutrient Agar, 150 mg/l indicator, 100 mg/l IPTG; on C: Color of colonies: key: −: absent; +/−: weak; +: strong; ++: very strong; on G: Growth of colonies: key: −: absent; +/−: weak; +: strong; ++: very strong
[11] = tested on: Enterobacter aerogenes 242; assay: as above; conditions: Enterobacter aerogenes strain 242, b-gal +; 24 h on Nutrient Agar, 150 mg/l indicator, 100 mg/l IPTG; on C: Color of colonies: key: −: absent; +/−: weak; +: strong; ++: very strong; on G: Growth of colonies: key: −: absent; +/−: weak; +: strong; ++: very strong
Shigella boydii 135 = assay: as above; conditions: Shigella boydii strain 135, b-gal −; 24 h on Nutrient Agar, 150 mg/l indicator, 100 mg/l IPTG; further: key: −: absent; +/−: weak; +: strong; ++: very strong
Escherichia coli = assay: IN and IO staining of bacterial colonies under anaerobic conditions; conditions: for C: Color of colonies / D: Diffusion around colonies / G: Growth of colonies / I: Intensity of color / L: Localization on colonies / S: Size of colonies: Nutrient Agar plates, anaerobically incubated with E. coli
Protocol: Nutrient Agar plates containing 150 mg/l of various substrates and 100 mg/l IPTG were inoculated with Escherichia coli. Plates were put in an anaerobic jar (Anaerojar, Oxoid), an AnaeroGen sachet (Oxoid) was added, the jar was closed and incubated for 24 hours at 37° C.
IN staining cannot be used under anaerobic conditions.

Escherichia coli 270 = assay: IO staining of colonies of beta-D-galactosidase positive/negative bacteria (Table IVb); conditions: Escherichia coli strain 270, b-gal +; 24 h on Nutrient Agar, 150 mg/l indicator, 100 mg/l IPTG; on C: Color of colonies: key: −: absent; +/−: weak; +: strong; ++: very strong; on G: Growth of colonies: key: −: absent; +/−: weak; +: strong; ++: very strong

O=C(c1ccccc1)c1ccccc1-n1cc(O[C@@H]2O[C@H](CO)[C@H](O)[C@H](O)[C@H]2O)c2c(Cl)c(Br)ccc21 [Indicator I22a, 1-(2-Benzoylphenyl)-5-bromo-4-chloro-1H-indol-3-yl-beta-D-galactopyranoside]
C: Color of colonies (Citrobacter freundii 181): +
F: Fluorescence of colonies (Citrobacter freundii 181): +/−
G: Growth of colonies (Citrobacter freundii 181): +
C: Color of colonies [1]: +
F: Fluorescence of colonies [1]: +/−
G: Growth of colonies [1]: +
C: Color of colonies [2]: −
F: Fluorescence of colonies [2]: −
G: Growth of colonies [2]: −
C: Color of colonies (Salmonella illa 73): −
F: Fluorescence of colonies (Salmonella illa 73): −
G: Growth of colonies (Salmonella illa 73): +
C: Color of colonies [3]: −
F: Fluorescence of colonies [3]: −
G: Growth of colonies [3]: −
F: Fluorescence of colonies (Staphylococcus aureus 2): −
G: Growth of colonies (Staphylococcus aureus 2): −
C: Color of colonies (Staphylococcus aureus 2): −
C: Color of colonies [4]: −
F: Fluorescence of colonies [4]: −
G: Growth of colonies [4]: −
C: Color of colonies [5]: −
F: Fluorescence of colonies [5]: −
G: Growth of colonies [5]: −
C: Color of colonies (Serratia marcescens 40): +
F: Fluorescence of colonies (Serratia marcescens 40): +/−
G: Growth of colonies (Serratia marcescens 40): +
C: Color of colonies [6]: +
F: Fluorescence of colonies [6]: +/−
G: Growth of colonies [6]: +
C: Color of colonies [7]: −
F: Fluorescence of colonies [7]: −
G: Growth of colonies [7]: +
C: Color of colonies [8]: −
F: Fluorescence of colonies [8]: −
G: Growth of colonies [8]: +
C: Color of colonies (Shigella sonnei 133): +
F: Fluorescence of colonies (Shigella sonnei 133): +/−
G: Growth of colonies (Shigella sonnei 133): +
C: Color of colonies (Aeromonas hydrophila 292): +/−
F: Fluorescence of colonies (Aeromonas hydrophila 292): +/−
G: Growth of colonies (Aeromonas hydrophila 292): +
C: Color of colonies [9]: −
F: Fluorescence of colonies [9]: −
G: Growth of colonies [9]: +
C: Color of colonies [10]: −
G: Growth of colonies [10]: +
F: Fluorescence of colonies [10]: +^1
C: Color of colonies (Bacillus subtilis 65): −
F: Fluorescence of colonies (Bacillus subtilis 65): −
G: Growth of colonies (Bacillus subtilis 65): −
C: Color of colonies (Salmonella bongori 81): +/−
F: Fluorescence of colonies (Salmonella bongori 81): −
G: Growth of colonies (Salmonella bongori 81): +
C: Color of colonies (Enterobacter cloacae 245): +
F: Fluorescence of colonies (Enterobacter cloacae 245): +/−
G: Growth of colonies (Enterobacter cloacae 245): +
C: Color of colonies (Escherichia coli 61): +
F: Fluorescence of colonies (Escherichia coli 61): +/−
G: Growth of colonies (Escherichia coli 61): +
C: Color of colonies [11]: +
F: Fluorescence of colonies [11]: +/−
G: Growth of colonies [11]: +
C: Color of colonies (Shigella boydii 135): −
F: Fluorescence of colonies (Shigella boydii 135): −
G: Growth of colonies (Shigella boydii 135): +
Localization of stain under anaerobic conditions (Escherichia coli; E. coli, anaerobic, 24 hours at 37° C.): perfect localization
C: Color of colonies (Escherichia coli): o-r
D: Diffusion around colonies (Escherichia coli): −
G: Growth of colonies (Escherichia coli): +
I: Intensity of color (Escherichia coli): +
L: Localization on colonies (Escherichia coli): ++
S: Size of colonies (Escherichia coli): 0.5 mm
C: Color of colonies (Escherichia coli 270): +
F: Fluorescence of colonies (Escherichia coli 270): +/−
G: Growth of colonies (Escherichia coli 270): +

Cn1cccc1C(=O)c1ccccc1-n1cc(O[C@@H]2O[C@H](CO)[C@H](O)[C@H](O)[C@H]2O)c2ccc(Cl)cc21 [Indicator I31a, 6-Chloro-1-[2-(N-methylpyrrole-2-carbonyl)phenyl]-1H-indol-3-yl-beta-D-galactopyranoside]
C: Color of colonies (Citrobacter freundii 181): +
F: Fluorescence of colonies (Citrobacter freundii 181): +/−
G: Growth of colonies (Citrobacter freundii 181): +
C: Color of colonies [1]: +
F: Fluorescence of colonies [1]: +/−
G: Growth of colonies [1]: +
C: Color of colonies [2]: −
F: Fluorescence of colonies [2]: −
G: Growth of colonies [2]: +/−
C: Color of colonies (Salmonella illa 73): −
F: Fluorescence of colonies (Salmonella illa 73): −
G: Growth of colonies (Salmonella illa 73): +
C: Color of colonies [3]: −
F: Fluorescence of colonies [3]: −
G: Growth of colonies [3]: +/−
F: Fluorescence of colonies (Staphylococcus aureus 2): −
G: Growth of colonies (Staphylococcus aureus 2): +
C: Color of colonies (Staphylococcus aureus 2): −
C: Color of colonies [4]: +
F: Fluorescence of colonies [4]: −
G: Growth of colonies [4]: +
C: Color of colonies [5]: +
F: Fluorescence of colonies [5]: −
G: Growth of colonies [5]: +
C: Color of colonies (Serratia marcescens 40): +
F: Fluorescence of colonies (Serratia marcescens 40): −
G: Growth of colonies (Serratia marcescens 40): +
C: Color of colonies [6]: +
F: Fluorescence of colonies [6]: +/−
G: Growth of colonies [6]: +
C: Color of colonies [7]: −
F: Fluorescence of colonies [7]: −
G: Growth of colonies [7]: +
C: Color of colonies [8]: +/−
F: Fluorescence of colonies [8]: −
G: Growth of colonies [8]: +
C: Color of colonies (Shigella sonnei 133): +
F: Fluorescence of colonies (Shigella sonnei 133): +/−
G: Growth of colonies (Shigella sonnei 133): +
C: Color of colonies (Aeromonas hydrophila 292): +
F: Fluorescence of colonies (Aeromonas hydrophila 292): −
G: Growth of colonies (Aeromonas hydrophila 292): +
C: Color of colonies [9]: −
F: Fluorescence of colonies [9]: −
G: Growth of colonies [9]: +
C: Color of colonies [10]: −
G: Growth of colonies [10]: +
F: Fluorescence of colonies [10]: −
C: Color of colonies (Bacillus subtilis 65): −
F: Fluorescence of colonies (Bacillus subtilis 65): −
G: Growth of colonies (Bacillus subtilis 65): +
C: Color of colonies (Salmonella bongori 81): +/−
F: Fluorescence of colonies (Salmonella bongori 81): −
G: Growth of colonies (Salmonella bongori 81): +
C: Color of colonies (Enterobacter cloacae 245): +
F: Fluorescence of colonies (Enterobacter cloacae 245): +/−
G: Growth of colonies (Enterobacter cloacae 245): +
C: Color of colonies (Escherichia coli 61): +
F: Fluorescence of colonies (Escherichia coli 61): +/−
G: Growth of colonies (Escherichia coli 61): +
C: Color of colonies [11]: +
F: Fluorescence of colonies [11]: +/−
G: Growth of colonies [11]: +
C: Color of colonies (Shigella boydii 135): −
F: Fluorescence of colonies (Shigella boydii 135): −
G: Growth of colonies (Shigella boydii 135): +
C: Color of colonies (Escherichia coli): o-r
D: Diffusion around colonies (Escherichia coli): +
G: Growth of colonies (Escherichia coli): +
I: Intensity of color (Escherichia coli): +
L: Localization on colonies (Escherichia coli): +/−
S: Size of colonies (Escherichia coli): 0.8 mm
C: Color of colonies (Escherichia coli 270): +
F: Fluorescence of colonies (Escherichia coli 270): +/−
G: Growth of colonies (Escherichia coli 270): +
